Values after ≈ are worked out from the molar mass of the structure shown. Read-outs that look alike come from different tables or passages of the source.
Legend:
[1] = tested on: Gram-positive bacteria, Gram-negative bacteria and fastidious bacteria; experiment: Antibacterial activity (summary statement); format: cell-based
S. aureus A9497 = experiment: MIC, agar dilution technique (Mueller-Hinton Agar); format: cell-based; conditions: Staphylococcus aureus, Gp-Ia, penicillin sensitive, read-out: Minimum Inhibitory Concentration
How it was run: (§1)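 Agar dilution on Mueller-Hinton agar. Organisms are grouped as penicillin-sensitive or penicillinase-producing penicillin-resistant Gram-positive staphylococci, and ampicillin/cephalothin-sensitive or -resistant Gram-negative bacteria, five strains per group.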

S. aureus Russell = experiment: MIC, agar dilution technique (Mueller-Hinton Agar); format: cell-based; conditions: Staphylococcus aureus, read-out: Minimum Inhibitory Concentration
How it was run: as §1

E. coli A9660 = experiment: MIC, agar dilution technique (Mueller-Hinton Agar); format: cell-based; conditions: Escherichia coli; E. coli A9660; Gn-Ia, ampicillin and cephalothin sensitive; read-out: Minimum Inhibitory Concentration
How it was run: as §1

P. mirabilis A9554 = experiment: MIC, agar dilution technique (Mueller-Hinton Agar); format: cell-based; conditions: Proteus mirabilis; P. mirabilis A9554; Gn-Ia, ampicillin and cephalothin sensitive; read-out: Minimum Inhibitory Concentration
How it was run: as §1

P. mirabilis A9900 = experiment: MIC, agar dilution technique (Mueller-Hinton Agar); format: cell-based; conditions: Proteus mirabilis; P. mirabilis A9900; Gn-Ia, ampicillin and cephalothin sensitive; read-out: Minimum Inhibitory Concentration
How it was run: as §1

K. pneumoniae D11 = experiment: MIC, agar dilution technique (Mueller-Hinton Agar); format: cell-based; conditions: Klebsiella pneumoniae; K. pneumoniae D11; Gn-Ia, ampicillin and cephalothin sensitive; read-out: Minimum Inhibitory Concentration
How it was run: as §1

S. aureus A9602 = experiment: MIC, agar dilution technique (Mueller-Hinton Agar); format: cell-based; conditions: Staphylococcus aureus; S. aureus A9602; Gp-Ib, penicillin resistant; read-out: Minimum Inhibitory Concentration
How it was run: as §1

S. aureus Terajima = experiment: MIC, agar dilution technique (Mueller-Hinton Agar); format: cell-based; conditions: Staphylococcus aureus, Gp-Ia, penicillin sensitive, read-out: Minimum Inhibitory Concentration
How it was run: as §1

S. aureus No. 193 = experiment: MIC, agar dilution technique (Mueller-Hinton Agar); format: cell-based; conditions: Staphylococcus aureus, Gp-Ib, penicillin resistant, read-out: Minimum Inhibitory Concentration
How it was run: as §1

E. coli A20341-1 = experiment: MIC, agar dilution technique (Mueller-Hinton Agar); format: cell-based; conditions: Escherichia coli, A203411; E. coli A20341-1; Gn-Ib, ampicillin and cephalothin resistant; read-out: Minimum Inhibitory Concentration
How it was run: as §1

S. aureus BX-1633-2 = experiment: MIC, agar dilution technique (Mueller-Hinton Agar); format: cell-based; conditions: Staphylococcus aureus, BX16332, read-out: Minimum Inhibitory Concentration
How it was run: as §1

S. aureus A9534 = experiment: MIC, agar dilution technique (Mueller-Hinton Agar); format: cell-based; conditions: Staphylococcus aureus, Gp-Ia, penicillin sensitive, read-out: Minimum Inhibitory Concentration
How it was run: as §1

S. aureus A9601 = experiment: MIC, agar dilution technique (Mueller-Hinton Agar); format: cell-based; conditions: Staphylococcus aureus; S. aureus A9601; Gp-Ia, penicillin sensitive; read-out: Minimum Inhibitory Concentration
How it was run: as §1

S. aureus Smith [2] = experiment: MIC, agar dilution technique (Mueller-Hinton Agar); format: cell-based; conditions: Staphylococcus aureus, Gp-Ia, penicillin sensitive, read-out: Minimum Inhibitory Concentration
How it was run: as §1

E. coli Juhl [3] = experiment: MIC, agar dilution technique (Mueller-Hinton Agar); format: cell-based; conditions: Escherichia coli; E. coli Juhl; Gn-Ia, ampicillin and cephalothin sensitive; read-out: Minimum Inhibitory Concentration
How it was run: as §1

K. pneumoniae A20346 = experiment: MIC, agar dilution technique (Mueller-Hinton Agar); format: cell-based; conditions: Klebsiella pneumoniae; K. pneumoniae A20346; Gn-Ib, ampicillin and cephalothin resistant; read-out: Minimum Inhibitory Concentration
How it was run: as §1

S. aureus A15092 = experiment: MIC, agar dilution technique (Mueller-Hinton Agar); format: cell-based; conditions: Staphylococcus aureus, Gp-Ib, penicillin resistant, read-out: Minimum Inhibitory Concentration
How it was run: as §1

Mouse blood levels = experiment: Mouse blood levels
Text: Table 3 contains comparative blood level data for mice treated orally and intramuscularly with the hydroxyphenylglycyl derivatives.

Mouse urinary recovery = format: in vivo, mice; conditions: 20 mg/kg
[4] = tested on: Gp-Ib organisms (Gram-positive staphylococci resistant to penicillin); experiment: In vitro activity, agar dilution, group of five strains; format: cell-based
Text: (§2) Each of these groups of organisms is constituted of five individual strains of microorganism. The Gp-Ia organisms are Gram-positive staphylococci which are sensitive to penicillin. The Gp-Ib organisms are Gram-positive staphylococci which are resistant to penicillin and produce penicillinase. The Gn-Ia organisms are Gram-negative bacteria which are sensitive to ampicillin and cephalothin. The Gn-Ib organisms are Gram-negative bacteria which are resistant to ampicillin and cephalothin.

[5] = tested on: Gp-Ia organisms (Gram-positive staphylococci sensitive to penicillin); experiment: as above; format: cell-based
Text: as §2

[6] = tested on: Gn-Ia organisms (Gram-negative bacteria sensitive to ampicillin and cephalothin); experiment: as above; format: cell-based
Text: as §2

S. aureus Smith [7] = experiment: Protective dose for mice infected with lethal inoculum; format: in vivo; conditions: 50% survival after five days
Text: (§3) The data in Table 2 are results of protective doses (PD50) for mice infected with a lethal inoculum of bacteria. Two different bacteria were employed in the studies, one a Gram-positive organism (S. aureus Smith) and the other a Gram-negative organism (E. coli Juhl). The PD50 is that dose which, when administered to a group of injected mice, results in 50% survival after five days. Normally untreated infected mice die within three days following injection of the lethal inoculum.

E. coli Juhl [8] = experiment: as above; format: in vivo; conditions: 50% survival after five days
Text: as §3

C/C=C\C1=C(C(=O)O)N2C(=O)C(NC(=O)[C@H](N)c3cccc(O)c3)[C@H]2SC1 (stereo partly shown) [BMY-28272, 7-[(D)-2-amino-2-(3-hydroxyphenyl)acetamido]-3-[(Z)-1-propenyl]-3-cephem-4-carboxylic acid]
activity against Gram-positive bacteria [1]: strong activity against Gram-positive bacteria | spectrum of activity against Gram-negative and fastidious bacteria relative to cephalexin and cefaclor [1]: improved spectrum of activity against Gram-negative bacteria and fastidious bacteria relative to cephalexin and cefaclor | MIC (S. aureus A9497): 0.4 µg/mL (≈ 1.03 µM) | MIC (S. aureus Russell): 1.6 µg/mL (≈ 4.11 µM) | MIC (E. coli A9660): 0.8 µg/mL (≈ 2.05 µM) | MIC (P. mirabilis A9554): 0.8 µg/mL (≈ 2.05 µM) | MIC (P. mirabilis A9900): 0.8 µg/mL (≈ 2.05 µM) | MIC (K. pneumoniae D11): 0.8 µg/mL (≈ 2.05 µM) | MIC (S. aureus A9602): 0.8 µg/mL (≈ 2.05 µM) | MIC (S. aureus Terajima): 0.4 µg/mL (≈ 1.03 µM) | MIC (S. aureus No. 193): 1.6 µg/mL (≈ 4.11 µM) | MIC (E. coli A20341-1): 12.5 µg/mL (≈ 32.1 µM) | MIC (S. aureus BX-1633-2): 1.6 µg/mL (≈ 4.11 µM) | MIC (S. aureus A9534): 0.4 µg/mL (≈ 1.03 µM) | MIC (S. aureus A9601): 0.8 µg/mL (≈ 2.05 µM) | MIC (S. aureus Smith [2]): 0.4 µg/mL (≈ 1.03 µM) | MIC (E. coli Juhl [3]): 1.6 µg/mL (≈ 4.11 µM) | MIC (K. pneumoniae A20346): 50 µg/mL (≈ 128 µM) | MIC (S. aureus A15092): 1.6 µg/mL (≈ 4.11 µM) | AUC relative to BMY-28100 (Mouse blood levels; 20 mg/kg intramuscularly): greater AUC value | T1/2 relative to BMY-28100 (Mouse blood levels; 20 mg/kg intramuscularly): longer T1/2 than BMY-28100 | AUC relative to BMY-28100 (Mouse blood levels; 100 mg/kg orally): greater AUC value | T1/2 relative to BMY-28100 (Mouse blood levels; 100 mg/kg orally): somewhat shorter T1/2 than BMY-28100 | duration of blood levels relative to BMY-28100 (Mouse blood levels; 100 mg/kg orally): longer duration of blood levels | antibiotic concentrations in the bloodstream (Mouse blood levels; following oral administration, summary statement): prolonged antibiotic concentrations in the bloodstream following oral administration | concentration at 10 min (Mouse blood levels; mouse, blood, im, 20 mg/kg): 20000 ng/mL | concentration at 20 min (Mouse blood levels; mouse, blood, im, 20 mg/kg): 17000 ng/mL | concentration at 0.5 h (Mouse blood levels; mouse, blood, im, 20 mg/kg): 17000 ng/mL | concentration at 40 min (Mouse blood levels; mouse, blood, im, 20 mg/kg): 12000 ng/mL | concentration at 50 min (Mouse blood levels; mouse, blood, im, 20 mg/kg): 11000 ng/mL | concentration at 1 h (Mouse blood levels; mouse, blood, im, 20 mg/kg): 9400 ng/mL | concentration at 1.5 h (Mouse blood levels; mouse, blood, im, 20 mg/kg): 4800 ng/mL | concentration at 2 h (Mouse blood levels; mouse, blood, im, 20 mg/kg): 2600 ng/mL | AUC (Mouse blood levels; mouse, blood, im, 20 mg/kg, 20 mg/kg i.m.): 20000 ng·h/mL | half-life (Mouse blood levels; mouse, blood, im, 20 mg/kg, T 1/2, 20 mg/kg i.m.): 36 min | Cmax (Mouse blood levels; mouse, blood, po, 20 mg/kg): 9600 ng/mL | concentration at 0.5 h (Mouse blood levels; mouse, blood, po, 20 mg/kg): 7700 ng/mL | concentration at 1 h (Mouse blood levels; mouse, blood, po, 20 mg/kg): 4200 ng/mL | concentration at 2 h (Mouse blood levels; mouse, blood, po, 20 mg/kg): 1600 ng/mL | concentration at 3 h (Mouse blood levels; mouse, blood, po, 20 mg/kg): 620 ng/mL | concentration at 4 h (Mouse blood levels; mouse, blood, po, 20 mg/kg): 220 ng/mL | concentration at 5 h (Mouse blood levels; mouse, blood, po, 20 mg/kg): 130 ng/mL | concentration at 6 h (Mouse blood levels; mouse, blood, po, 20 mg/kg): 82 ng/mL | AUC (Mouse blood levels; mouse, blood, po, 20 mg/kg, 20 mg/kg p.o.): 9700 ng·h/mL | AUC (Mouse blood levels; mouse, blood, po, 20 mg/kg, 20 mg/kg p.o., another experiment (footnote)): 17000 ng·h/mL | half-life (Mouse blood levels; mouse, blood, po, 20 mg/kg, T 1/2, 20 mg/kg p.o.): 51.6 min | half-life (Mouse blood levels; mouse, blood, po, 20 mg/kg, T 1/2, 20 mg/kg p.o., another experiment (footnote)): 60 min | concentration at 0.5 h (Mouse blood levels; mouse, blood, po, 100 mg/kg): 23000 ng/mL | concentration at 1 h (Mouse blood levels; mouse, blood, po, 100 mg/kg): 22000 ng/mL | concentration at 2 h (Mouse blood levels; mouse, blood, po, 100 mg/kg): 16000 ng/mL | concentration at 3 h (Mouse blood levels; mouse, blood, po, 100 mg/kg): 10000 ng/mL | concentration at 4 h (Mouse blood levels; mouse, blood, po, 100 mg/kg): 6300 ng/mL | concentration at 5 h (Mouse blood levels; mouse, blood, po, 100 mg/kg): 3100 ng/mL | concentration at 6 h (Mouse blood levels; mouse, blood, po, 100 mg/kg): 2800 ng/mL | concentration at 7 h (Mouse blood levels; mouse, blood, po, 100 mg/kg): 2500 ng/mL | AUC (Mouse blood levels; mouse, blood, po, 100 mg/kg, 100 mg/kg p.o.): 71000 ng·h/mL | half-life (Mouse blood levels; mouse, blood, po, 100 mg/kg, T 1/2, 100 mg/kg p.o.): 102 min | total recovery ratio relative to BMY-28100 and cefaclor (Mouse urinary recovery; p.o.): smaller than those of BMY-28100 and cefaclor | rate of excretion relative to BMY-28100 and cefaclor (Mouse urinary recovery; p.o., from the 6-24 hours period): slower than BMY-28100 and cefaclor | dose excreted at 2 h (Mouse urinary recovery; mouse, urine, po, 0-2 hr): 37% | dose excreted at 4 h (Mouse urinary recovery; mouse, urine, po, 2-4 hr): 4.4% | dose excreted at 6 h (Mouse urinary recovery; mouse, urine, po, 4-6 hr): 0.4% | dose excreted at 24 h (Mouse urinary recovery; mouse, urine, po, p.o., 6-24 hr, read-out: Mouse urinary recovery 6-24 hr): 8.7% | dose excreted at 24 h (Mouse urinary recovery; mouse, urine, po, p.o., total, read-out: Mouse urinary recovery Total): 51% | activity relative to BMY-28100 [4]: slightly less active than BMY-28100 | activity relative to cephalexin or cefaclor [4]: three times more active than cephalexin or cefaclor | activity relative to BMY-28100 [5]: same as BMY-28100 | activity relative to cephalexin and cefaclor [5]: two or four times more active than cephalexin and cefaclor | activity relative to cephalexin and cefaclor [6]: more active than cephalexin and slightly better than cefaclor | PD50 (protective dose) (S. aureus Smith [7]; im): 0.29 | PD50 (protective dose) (S. aureus Smith [7]; po): 0.17 | PD50 (protective dose) (E. coli Juhl [8]; im): 1.9 | PD50 (protective dose) (E. coli Juhl [8]; po): 2.6

From patent US4619925A, “3-Propenyl cephalosporin derivatives” (priority 1985, dated 1986)
